# Laboratory results: ChEMBL document CHEMBL1201862, “PubChem BioAssay data set” (2004)
#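 A five-concentration, 48-hour dose response in 96-well plates underlies each endpoint, interpolated linearly between surrounding concentrations. GI50: concentration for 50% inhibition of growth.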 Calls of active or inactive are those of the source. No stated cut-off is given here; in the data, active = GI50 up to about 1.1 µM and inactive = higher.
# What was measured:
# Assay in all cases: NCI tumour cell line growth inhibition, 48 h
# [1] = tested on: HT-29
# [2] = tested on: HL-60
# [3] = tested on: HCT-15
# [4] = tested on: A549
# [5] = tested on: SNB-19
# [6] = tested on: U-251
# [7] = tested on: UO-31
# [8] = tested on: CCRF-CEM
# [9] = tested on: HCC 2998
# [10] = tested on: HCT-116
# [11] = tested on: RPMI-8226
# [12] = tested on: NCI-H460
# [13] = tested on: COLO 205
# [14] = tested on: NCI-H226
# [15] = tested on: ACHN
# [16] = tested on: SF-295
# [17] = tested on: SK-MEL-2
# [18] = tested on: UACC-62
# [19] = tested on: HOP-92
# [20] = tested on: SK-OV-3
SMILES,GI50 [1],GI50 [2],GI50 [3],GI50 [4],GI50 [5],GI50 [6],GI50 [7],GI50 [8],GI50 [9],GI50 [10],GI50 [11],GI50 [12],GI50 [13],GI50 [14],GI50 [15],GI50 [16],GI50 [17],GI50 [18],GI50 [19],GI50 [20]
COc1ccc(N[S+]([O-])C2CCCCC2)cc1 (stereo unspecified),> 100 µM (inactive),> 100 µM (inactive),> 100 µM,> 100 µM (inactive),> 100 µM (inactive),> 100 µM (inactive),> 100 µM (inactive),> 100 µM (inactive),59.2 µM (inactive),> 100 µM (inactive),> 100 µM (inactive),> 100 µM (inactive),> 100 µM (inactive),> 100 µM (inactive),> 100 µM (inactive),> 100 µM (inactive),–,–,–,–
CC(=O)OCC1(CNc2nc(N)ncc2C#N)CC(CCc2ccccc2)C1 (stereo unspecified),> 100 µM (inactive),3.66 µM (inactive),> 100 µM,15.5 µM (inactive),–,31.3 µM (inactive),10.7 µM (inactive),57 µM (inactive),–,5.43 µM (inactive),–,26.8 µM (inactive),75.3 µM (inactive),42 µM (inactive),28.4 µM (inactive),7.66 µM (inactive),> 100 µM (inactive),46 µM (inactive),2.45 µM (inactive),–
NCOC(=O)Cc1ccc(Br)cc1,> 100 µM (inactive),42.3 µM (inactive),> 100 µM,> 100 µM (inactive),> 100 µM (inactive),> 100 µM (inactive),> 100 µM (inactive),80 µM (inactive),–,> 100 µM (inactive),> 100 µM (inactive),> 100 µM (inactive),> 100 µM (inactive),> 100 µM (inactive),> 100 µM (inactive),> 100 µM (inactive),> 100 µM (inactive),> 100 µM (inactive),> 100 µM (inactive),> 100 µM (inactive)
O=C1C(c2ccccc2)=[N+]([O-])c2cc([N+](=O)[O-])c(/C(Cl)=C/c3ccccc3)cc21,22.3 µM (inactive),4.06 µM (inactive),–,40.1 µM (inactive),31.3 µM (inactive),18.6 µM (inactive),41.8 µM (inactive),10.5 µM (inactive),–,–,13.9 µM (inactive),–,17.3 µM (inactive),31.2 µM (inactive),24.5 µM (inactive),53.3 µM (inactive),–,30.6 µM (inactive),–,> 100 µM (inactive)
Oc1ccc(/C=N/N=c2\[nH][nH]/c(=N\N=C\c3ccc(O)cc3O)c3ccccc23)c(O)c1,0.331 µM (active),0.271 µM (active),0.244 µM,0.315 µM (active),0.473 µM (active),0.2 µM (active),0.388 µM (active),0.345 µM (active),–,0.313 µM (active),0.3 µM (active),0.355 µM (active),0.581 µM (active),–,0.21 µM (active),0.295 µM (active),0.288 µM (active),0.234 µM (active),–,0.428 µM (active)
COc1cc(Nc2cnc3cc(F)c(F)cc3n2)cc(OC)c1OC,> 100 µM (inactive),24.9 µM (inactive),> 100 µM,> 100 µM (inactive),> 100 µM (inactive),> 100 µM (inactive),> 100 µM (inactive),> 100 µM (inactive),–,> 100 µM (inactive),–,> 100 µM (inactive),> 100 µM (inactive),> 100 µM (inactive),> 100 µM (inactive),> 100 µM (inactive),84.3 µM (inactive),> 100 µM (inactive),> 100 µM (inactive),> 100 µM (inactive)
Cc1nc(=O)n2c(c1C(=O)Nc1ccc(Cl)cc1)NCCC2,> 100 µM (inactive),> 100 µM (inactive),> 100 µM,> 100 µM (inactive),32 µM (inactive),> 100 µM (inactive),–,> 100 µM (inactive),–,> 100 µM (inactive),> 100 µM (inactive),> 100 µM (inactive),> 100 µM (inactive),> 100 µM (inactive),> 100 µM (inactive),> 100 µM (inactive),> 100 µM (inactive),> 100 µM (inactive),> 100 µM (inactive),> 100 µM (inactive)
COc1cc2c(cc1OC)C(Cl)C(c1ccc(Cl)cc1)=C2Cl (stereo unspecified),13.3 µM (inactive),11.4 µM (inactive),14.5 µM,–,27.2 µM (inactive),13.7 µM (inactive),16.8 µM (inactive),6.15 µM (inactive),–,–,9.02 µM (inactive),13.5 µM (inactive),16.8 µM (inactive),22 µM (inactive),15.2 µM (inactive),14.5 µM (inactive),16 µM (inactive),12.5 µM (inactive),12.6 µM (inactive),28.5 µM (inactive)
Cc1cc(NS(=O)(=O)c2ccc(NC(=O)c3cccc4cc5ccccc5nc34)cc2)no1,30 µM (inactive),–,14.7 µM,22 µM (inactive),6.46 µM (inactive),12.5 µM (inactive),6.87 µM (inactive),16 µM (inactive),–,6.7 µM (inactive),16.1 µM (inactive),18.3 µM (inactive),23.3 µM (inactive),0.191 µM (active),11.1 µM (inactive),19.9 µM (inactive),18.7 µM (inactive),13.8 µM (inactive),–,39.6 µM (inactive)
CC1SC(=O)SC1C (stereo unspecified),–,> 100 µM (inactive),> 100 µM,> 100 µM (inactive),> 100 µM (inactive),> 100 µM (inactive),> 100 µM (inactive),> 100 µM (inactive),> 100 µM (inactive),> 100 µM (inactive),> 100 µM (inactive),> 100 µM (inactive),> 100 µM (inactive),–,> 100 µM (inactive),> 100 µM (inactive),–,–,–,> 100 µM (inactive)
Nc1nc(SCC(=O)O)nc(O)c1N,> 100 µM (inactive),56.1 µM (inactive),> 100 µM,> 100 µM (inactive),> 100 µM (inactive),> 100 µM (inactive),> 100 µM (inactive),1.32 µM (inactive),–,35.6 µM (inactive),32.7 µM (inactive),> 100 µM (inactive),> 100 µM (inactive),> 100 µM (inactive),> 100 µM (inactive),> 100 µM (inactive),> 100 µM (inactive),> 100 µM (inactive),> 100 µM (inactive),> 100 µM (inactive)
CC(=O)Nc1ccccc1S(=O)(=O)c1c(-c2c(C)c(Cl)c(C)c(Cl)c2C)noc1C,55.2 µM (inactive),–,> 100 µM,60.1 µM (inactive),26 µM (inactive),31.6 µM (inactive),> 100 µM (inactive),27.8 µM (inactive),90.4 µM (inactive),51.5 µM (inactive),29.2 µM (inactive),26.5 µM (inactive),> 100 µM (inactive),27 µM (inactive),55.2 µM (inactive),32.8 µM (inactive),> 100 µM (inactive),28.9 µM (inactive),–,31.7 µM (inactive)
Nc1nc(N)c2ncn(Cc3ccccc3CO)c2n1,> 100 µM (inactive),> 100 µM (inactive),> 100 µM,> 100 µM (inactive),> 100 µM (inactive),> 100 µM (inactive),> 100 µM (inactive),29.7 µM (inactive),–,> 100 µM (inactive),> 100 µM (inactive),> 100 µM (inactive),> 100 µM (inactive),> 100 µM (inactive),> 100 µM (inactive),> 100 µM (inactive),> 100 µM (inactive),> 100 µM (inactive),> 100 µM (inactive),> 100 µM (inactive)
CC(Cc1ccc(Cl)cc1Cl)NO (stereo unspecified),> 100 µM (inactive),–,> 100 µM,> 100 µM (inactive),> 100 µM (inactive),> 100 µM (inactive),> 100 µM (inactive),> 100 µM (inactive),–,83.6 µM (inactive),78 µM (inactive),–,> 100 µM (inactive),46.3 µM (inactive),> 100 µM (inactive),> 100 µM (inactive),> 100 µM (inactive),> 100 µM (inactive),–,> 100 µM (inactive)
Cn1c(=O)nc2n(-c3ccc(Br)cc3)c3ccccc3nc-2c1=O,2.29 µM (inactive),–,3.55 µM,2.02 µM (inactive),2.9 µM (inactive),5.12 µM (inactive),10.4 µM (inactive),3.81 µM (inactive),2.21 µM (inactive),4.11 µM (inactive),3.16 µM (inactive),1.82 µM (inactive),2.64 µM (inactive),11 µM (inactive),0.543 µM (active),3.66 µM (inactive),9.33 µM (inactive),1.3 µM (inactive),–,27.8 µM (inactive)
COc1ccc2c(O)c1-c1c(OC)ccc(c1O)SSc1ccc(OC)c(c1O)-c1c(OC)ccc(c1O)SS2,> 100 µM (inactive),8.15 µM (inactive),–,24.5 µM (inactive),60.4 µM (inactive),19.2 µM (inactive),4.21 µM (inactive),4.56 µM (inactive),–,48.2 µM (inactive),1.99 µM (inactive),–,19.9 µM (inactive),29.9 µM (inactive),5.32 µM (inactive),> 100 µM (inactive),> 100 µM (inactive),–,23 µM (inactive),> 100 µM (inactive)
Cc1ccccc1NC(=O)CSc1nnc(-c2ccc(/N=C\c3ccc(Cl)cc3)cc2)o1,> 100 µM (inactive),> 100 µM (inactive),> 100 µM,> 100 µM (inactive),> 100 µM (inactive),> 100 µM (inactive),> 100 µM (inactive),> 100 µM (inactive),–,> 100 µM (inactive),> 100 µM (inactive),> 100 µM (inactive),> 100 µM (inactive),> 100 µM (inactive),> 100 µM (inactive),> 100 µM (inactive),> 100 µM (inactive),> 100 µM (inactive),–,> 100 µM (inactive)
